Reference: PMC10313662, “Structural insights into neurokinin 3 receptor activation by endogenous and analogue peptide agonists” (Cell Discovery, 2023)
Each block holds one molecule with its values, some of them ahead of it. Ends that are not written are not given here.

Columns and labels:
wild-type NK3R = target: T1, wild-type NK3R (Homo sapiens, UniProt P29371); experiment: IP-one accumulation assay, wild-type NK3R; assay type: cell-based
T1 construct: FLAG (DYKDDDDK); expressed in transfected cells; host or cells: HEK293T
T1 sequence (P29371 1-465): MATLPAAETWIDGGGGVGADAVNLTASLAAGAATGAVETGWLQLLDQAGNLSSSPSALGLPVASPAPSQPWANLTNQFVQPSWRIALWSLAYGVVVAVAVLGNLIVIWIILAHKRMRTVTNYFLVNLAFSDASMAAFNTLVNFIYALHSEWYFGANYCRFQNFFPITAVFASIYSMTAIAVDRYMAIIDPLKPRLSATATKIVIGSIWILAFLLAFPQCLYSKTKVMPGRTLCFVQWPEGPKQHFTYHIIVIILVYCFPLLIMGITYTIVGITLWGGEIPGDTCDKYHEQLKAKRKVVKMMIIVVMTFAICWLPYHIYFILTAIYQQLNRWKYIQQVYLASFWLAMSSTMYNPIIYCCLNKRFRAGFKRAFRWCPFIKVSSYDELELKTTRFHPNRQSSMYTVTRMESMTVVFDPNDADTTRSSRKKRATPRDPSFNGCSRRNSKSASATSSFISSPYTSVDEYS

NK1R, NK2R, NK3R = conditions: ref [21]; cited from earlier work
NK3R V235A [1] = target: T2, NK3R V235A (human, UniProt P29371 1-465, NK3R-V235^ECL2 to alanine)
T2 sequence (looked up): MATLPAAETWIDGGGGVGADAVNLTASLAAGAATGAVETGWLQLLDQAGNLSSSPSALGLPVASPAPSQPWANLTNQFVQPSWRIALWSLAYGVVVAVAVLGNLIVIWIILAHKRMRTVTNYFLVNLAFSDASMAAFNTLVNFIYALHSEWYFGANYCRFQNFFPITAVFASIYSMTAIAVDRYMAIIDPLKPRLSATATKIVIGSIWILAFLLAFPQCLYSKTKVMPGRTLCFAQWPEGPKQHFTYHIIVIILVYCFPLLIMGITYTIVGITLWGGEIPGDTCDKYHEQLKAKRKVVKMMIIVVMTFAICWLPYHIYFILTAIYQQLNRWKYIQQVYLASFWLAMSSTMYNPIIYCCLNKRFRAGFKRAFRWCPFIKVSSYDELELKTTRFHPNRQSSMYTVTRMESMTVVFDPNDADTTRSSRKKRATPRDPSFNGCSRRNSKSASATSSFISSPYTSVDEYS

NK3R V235A [2] = target: T2, NK3R V235A; experiment: cell-based or functional assay

Molecule: CSCC[C@H](NC(=O)[C@H](CC(C)C)NC(=O)CNC(=O)[C@H](Cc1ccccc1)NC(=O)[C@H](Cc1ccccc1)NC(=O)[C@H](CCC(N)=O)NC(=O)[C@H](CCC(N)=O)NC(=O)[C@@H]1CCCN1C(=O)[C@H](CCCCN)NC(=O)[C@@H]1CCCN1C(=O)[C@@H](N)CCCNC(=N)N)C(N)=O [SP, substance P]
- Emax (wild-type NK3R): 100%

Molecule: CSCC[C@H](NC(=O)[C@H](CC(C)C)NC(=O)CNC(=O)[C@@H](NC(=O)[C@H](Cc1ccccc1)NC(=O)[C@H](Cc1ccccc1)NC(=O)[C@H](CC(=O)O)NC(=O)[C@H](Cc1c[nH]cn1)NC(=O)[C@H](CCSC)NC(=O)[C@@H](N)CC(=O)O)C(C)C)C(N)=O [NKB, neurokinin B]
- Emax (wild-type NK3R): 100%

Molecule: neurokinin A [NKA]
- Preferential receptor activation/binding, in words (NK1R, NK2R, NK3R): preferentially bind to NK1R and NK2R, respectively

Results, then the molecule that gave them:

- IP-one accumulation, HEK293T cells; fold decrease in receptor activation against wild-type NK3R, stimulated by senktide (NK3R V235A [1]): 64 fold
Molecule: senktide (suc-(Asp6, MePhe8) SP (6–11)) (peptide)

- IP-one accumulation, HEK293T cells; fold decrease in receptor activation against wild-type NK3R, stimulated by SP (NK3R V235A [2]): 30 fold
B1: substance P (peptide, UniProt P20366 58-68, looked up)
peptide: RPKPQQFFGLM-NH2

- IP-one accumulation, HEK293T cells; fold decrease in receptor activation against wild-type NK3R, stimulated by NKB (NK3R V235A [2]): 5.2 fold
B2: neurokinin B (peptide, UniProt Q9UHF0 81-90, looked up)
peptide: DMHDFFVGLM-NH2
